Experimental data from ChEMBL document CHEMBL1201862, “PubChem BioAssay data set” (2004).
Activity calls are given as the source filed them.

Key:
[1] = target: T1, Sentrin-specific protease 8 (Homo sapiens, UniProt Q96LD8); test: SENP8 protease inhibitors, SAR follow-up, biochemical, luminescence (AID 504501); type: functional
T1 sequence (Q96LD8 whole entry): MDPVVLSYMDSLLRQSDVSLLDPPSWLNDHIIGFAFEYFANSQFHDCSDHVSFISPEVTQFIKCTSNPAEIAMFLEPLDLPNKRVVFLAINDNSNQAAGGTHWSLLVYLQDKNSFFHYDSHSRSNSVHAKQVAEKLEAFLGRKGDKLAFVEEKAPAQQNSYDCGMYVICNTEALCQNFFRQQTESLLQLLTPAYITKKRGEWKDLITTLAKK

Caspase-3 = target: T2, Caspase-3 (Homo sapiens, UniProt P42574); test: SAR Analysis of small molecule inhibitors of Sentrin-specific proteases (SENPs) using a Caspase-3 Selectivity assay. [Related pubchem assays (depositor defined):AID2540, AID2599, AID434973, AID489001]; type: functional
T2 sequence (P42574 whole entry): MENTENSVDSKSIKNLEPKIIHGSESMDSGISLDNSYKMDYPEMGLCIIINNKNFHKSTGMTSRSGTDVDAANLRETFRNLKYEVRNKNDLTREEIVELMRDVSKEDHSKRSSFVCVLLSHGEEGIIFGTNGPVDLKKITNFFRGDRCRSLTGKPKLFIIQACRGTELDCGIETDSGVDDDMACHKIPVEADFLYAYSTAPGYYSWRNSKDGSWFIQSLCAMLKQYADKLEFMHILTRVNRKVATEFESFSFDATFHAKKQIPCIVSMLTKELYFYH

[2] = target: T3, Sentrin-specific protease 6 (Homo sapiens, UniProt Q9GZR1); test: SAR Analysis of small molecule inhibitors of Sentrin-specific protease 6 (SENP6) using a Luminescent assay. [Related pubchem assays (depositor defined):AID2582, AID2599]; type: functional
T3 sequence (Q9GZR1 whole entry): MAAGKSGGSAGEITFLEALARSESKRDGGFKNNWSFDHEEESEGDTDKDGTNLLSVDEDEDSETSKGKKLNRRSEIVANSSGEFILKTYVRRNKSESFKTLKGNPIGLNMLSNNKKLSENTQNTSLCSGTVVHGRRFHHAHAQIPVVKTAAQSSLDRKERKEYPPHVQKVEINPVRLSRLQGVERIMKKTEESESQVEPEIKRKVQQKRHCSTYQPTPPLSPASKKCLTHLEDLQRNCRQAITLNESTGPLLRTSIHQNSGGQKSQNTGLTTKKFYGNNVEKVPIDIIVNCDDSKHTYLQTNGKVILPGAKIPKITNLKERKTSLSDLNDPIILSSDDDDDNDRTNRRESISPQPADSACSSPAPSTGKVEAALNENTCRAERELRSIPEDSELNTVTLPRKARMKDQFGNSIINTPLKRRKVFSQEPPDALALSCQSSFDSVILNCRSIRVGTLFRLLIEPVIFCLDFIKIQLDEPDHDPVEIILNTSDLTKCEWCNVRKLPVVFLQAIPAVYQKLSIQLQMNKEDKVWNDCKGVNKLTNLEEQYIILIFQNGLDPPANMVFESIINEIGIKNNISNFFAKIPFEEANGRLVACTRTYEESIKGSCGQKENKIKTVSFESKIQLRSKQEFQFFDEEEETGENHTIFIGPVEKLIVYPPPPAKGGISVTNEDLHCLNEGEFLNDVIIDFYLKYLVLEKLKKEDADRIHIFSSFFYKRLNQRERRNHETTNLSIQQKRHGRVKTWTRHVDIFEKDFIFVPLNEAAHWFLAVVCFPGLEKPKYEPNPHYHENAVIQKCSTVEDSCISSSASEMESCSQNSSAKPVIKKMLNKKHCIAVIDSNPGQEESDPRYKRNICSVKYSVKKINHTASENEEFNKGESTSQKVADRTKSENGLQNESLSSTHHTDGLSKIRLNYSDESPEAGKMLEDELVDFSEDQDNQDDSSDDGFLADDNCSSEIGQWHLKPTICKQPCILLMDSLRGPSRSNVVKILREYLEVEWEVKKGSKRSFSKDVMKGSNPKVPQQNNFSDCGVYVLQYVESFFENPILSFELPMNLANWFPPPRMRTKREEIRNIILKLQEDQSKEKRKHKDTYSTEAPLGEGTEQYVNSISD

[3] = target: T4, Sentrin-specific protease 7 (Homo sapiens, UniProt Q9BQF6); test: SENP7 protease inhibitors, SAR follow-up, biochemical, luminescence (AID 504497); type: functional
T4 sequence (Q9BQF6 whole entry): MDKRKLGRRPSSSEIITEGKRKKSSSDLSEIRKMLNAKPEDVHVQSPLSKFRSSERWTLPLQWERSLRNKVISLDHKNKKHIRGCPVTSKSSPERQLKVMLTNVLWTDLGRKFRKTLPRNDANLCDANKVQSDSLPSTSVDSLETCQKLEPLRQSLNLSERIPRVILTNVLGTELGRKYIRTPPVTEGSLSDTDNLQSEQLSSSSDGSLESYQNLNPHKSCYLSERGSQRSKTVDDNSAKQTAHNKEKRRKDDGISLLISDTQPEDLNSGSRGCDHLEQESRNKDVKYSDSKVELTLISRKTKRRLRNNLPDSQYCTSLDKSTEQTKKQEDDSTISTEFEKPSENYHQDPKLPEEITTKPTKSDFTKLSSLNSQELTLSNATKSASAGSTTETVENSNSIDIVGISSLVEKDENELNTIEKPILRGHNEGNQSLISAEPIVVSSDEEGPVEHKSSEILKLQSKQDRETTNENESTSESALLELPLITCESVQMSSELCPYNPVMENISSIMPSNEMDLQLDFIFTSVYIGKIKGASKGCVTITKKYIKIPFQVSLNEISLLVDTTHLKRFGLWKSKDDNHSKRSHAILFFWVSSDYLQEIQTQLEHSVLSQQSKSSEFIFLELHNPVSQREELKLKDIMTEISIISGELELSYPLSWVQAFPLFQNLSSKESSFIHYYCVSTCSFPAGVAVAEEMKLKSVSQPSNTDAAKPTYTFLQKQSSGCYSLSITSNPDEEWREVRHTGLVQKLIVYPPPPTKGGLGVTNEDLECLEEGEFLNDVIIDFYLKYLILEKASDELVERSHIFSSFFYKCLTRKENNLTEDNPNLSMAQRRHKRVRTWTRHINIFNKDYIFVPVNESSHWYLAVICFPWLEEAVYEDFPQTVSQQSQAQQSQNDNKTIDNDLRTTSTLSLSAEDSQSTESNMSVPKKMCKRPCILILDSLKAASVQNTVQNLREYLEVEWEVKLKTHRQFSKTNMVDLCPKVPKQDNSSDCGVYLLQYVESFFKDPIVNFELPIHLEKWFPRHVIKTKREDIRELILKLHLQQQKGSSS

Coagulation factor XII = target: T5, Coagulation factor XII (Homo sapiens, UniProt P00748); type: functional;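 also: activated factor XIIa alpha cleaving a fluorogenic AMC peptide substrate; inhibitor potency from loss of enzyme activity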
T5 sequence (P00748 whole entry): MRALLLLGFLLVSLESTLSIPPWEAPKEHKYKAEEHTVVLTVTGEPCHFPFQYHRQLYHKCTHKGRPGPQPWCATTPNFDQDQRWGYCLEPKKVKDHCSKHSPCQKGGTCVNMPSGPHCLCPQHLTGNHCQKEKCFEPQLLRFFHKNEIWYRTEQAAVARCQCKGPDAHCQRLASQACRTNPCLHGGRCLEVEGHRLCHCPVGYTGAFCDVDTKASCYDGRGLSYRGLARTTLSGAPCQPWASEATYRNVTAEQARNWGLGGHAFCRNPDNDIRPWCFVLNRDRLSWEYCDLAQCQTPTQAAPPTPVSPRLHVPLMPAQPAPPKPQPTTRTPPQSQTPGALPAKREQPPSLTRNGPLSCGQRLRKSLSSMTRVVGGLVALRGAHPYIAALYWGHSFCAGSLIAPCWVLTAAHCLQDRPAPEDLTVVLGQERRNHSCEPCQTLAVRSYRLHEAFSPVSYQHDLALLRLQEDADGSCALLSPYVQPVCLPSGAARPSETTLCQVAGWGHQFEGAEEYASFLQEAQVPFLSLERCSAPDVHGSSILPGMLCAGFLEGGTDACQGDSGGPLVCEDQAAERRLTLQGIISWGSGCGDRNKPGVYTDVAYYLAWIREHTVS

Insulin-degrading enzyme [4] = target: T6, Insulin-degrading enzyme (Homo sapiens, UniProt P14735); test: activators of recombinant IDE enzyme, dose response, counter-screen for IDE activator project, biochemical, fluorescence polarization (AID 588681)
T6 sequence (P14735 whole entry): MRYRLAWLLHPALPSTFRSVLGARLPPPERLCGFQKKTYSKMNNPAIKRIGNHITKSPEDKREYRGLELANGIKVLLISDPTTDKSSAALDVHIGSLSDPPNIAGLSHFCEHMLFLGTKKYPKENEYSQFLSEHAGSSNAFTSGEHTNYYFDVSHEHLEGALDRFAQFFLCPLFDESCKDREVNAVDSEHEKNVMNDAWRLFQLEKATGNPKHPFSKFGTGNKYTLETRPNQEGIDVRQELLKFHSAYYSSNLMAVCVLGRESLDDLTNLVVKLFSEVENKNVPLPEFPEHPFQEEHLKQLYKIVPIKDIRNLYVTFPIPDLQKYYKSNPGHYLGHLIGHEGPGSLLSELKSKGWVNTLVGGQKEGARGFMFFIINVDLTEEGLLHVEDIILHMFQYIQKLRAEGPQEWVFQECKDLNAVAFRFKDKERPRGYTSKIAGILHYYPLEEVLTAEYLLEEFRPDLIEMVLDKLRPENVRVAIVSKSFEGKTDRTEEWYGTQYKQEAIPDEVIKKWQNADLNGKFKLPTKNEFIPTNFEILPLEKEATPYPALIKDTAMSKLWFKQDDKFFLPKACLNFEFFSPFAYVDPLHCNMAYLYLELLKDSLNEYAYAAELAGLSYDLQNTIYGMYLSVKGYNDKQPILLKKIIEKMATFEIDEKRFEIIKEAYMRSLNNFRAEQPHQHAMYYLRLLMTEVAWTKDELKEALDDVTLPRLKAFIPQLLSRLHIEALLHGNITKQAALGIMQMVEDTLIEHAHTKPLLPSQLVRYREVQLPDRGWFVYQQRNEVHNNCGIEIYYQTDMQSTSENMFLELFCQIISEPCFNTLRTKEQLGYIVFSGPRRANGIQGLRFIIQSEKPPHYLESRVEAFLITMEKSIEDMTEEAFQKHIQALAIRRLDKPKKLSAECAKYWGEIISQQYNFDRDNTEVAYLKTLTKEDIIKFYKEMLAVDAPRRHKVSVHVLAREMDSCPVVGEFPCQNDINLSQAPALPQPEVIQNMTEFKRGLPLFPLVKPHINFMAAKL

Insulin-degrading enzyme [5] = target: T6, Insulin-degrading enzyme; test: activators of endogenous IDE in HEK cells, dose response, cell-based, fluorescence polarization (AID 588439); type: functional
HEK293 [6] = test: HEK cell cytotoxicity by LDH release, dose response, cytotoxicity control for IDE activator project, fluorescence, HEK cells (AID 588440); type: functional, cell-based; conditions: Homo sapiens;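 also: cytotoxicity by LDH release measuring loss of membrane integrity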
HEK293 [7] = test: optical interference in Abeta FP readout, dose response, artefact control for IDE activator project, biochemical, fluorescence polarization (AID 588442); type: functional, cell-based; conditions: Homo sapiens
Melanocortin receptor 4 = Melanocortin receptor 4 (Homo sapiens, UniProt P32245); test: MC4R antagonist potency on cAMP, dose response, cell-based, TR-FRET, biased antagonists (AID 602298); type: functional;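 also: antagonist potency against agonist-stimulated cAMP production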
Sequence of Melanocortin receptor 4 (P32245 whole entry): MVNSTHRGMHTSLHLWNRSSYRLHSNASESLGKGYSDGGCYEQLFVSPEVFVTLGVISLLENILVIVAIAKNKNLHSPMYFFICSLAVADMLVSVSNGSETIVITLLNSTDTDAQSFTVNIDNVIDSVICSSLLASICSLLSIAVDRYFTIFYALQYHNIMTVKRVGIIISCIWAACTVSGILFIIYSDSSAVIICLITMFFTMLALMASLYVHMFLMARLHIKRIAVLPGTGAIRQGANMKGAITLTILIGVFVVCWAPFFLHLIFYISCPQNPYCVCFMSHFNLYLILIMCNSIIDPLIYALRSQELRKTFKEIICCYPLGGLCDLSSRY

[8] = nonselective inhibitors of cellular cAMP signaling, dose response, counter-screen for MC4R biased antagonist project, cell-based, TR-FRET cAMP detection (AID 602305); type: functional;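 also: U2OS cells stimulated with forskolin near its EC80 as the cAMP inducer; potency is for inhibition of forskolin-stimulated cAMP signaling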

CS(=O)(=O)c1ccc(N/N=C/c2cn(Cc3ccccc3)c3ccccc23)cc1
inactive: IC50 [1] > 99 µM | IC50 (Caspase-3) > 99 µM | IC50 [2] > 99 µM | IC50 [3] > 99 µM

COc1ccc(C(=O)N/N=C/c2cc3ccccc3nc2O)cc1
inactive: IC50 (Coagulation factor XII) > 50 µM | EC50 (Insulin-degrading enzyme [4]) > 54.7 µM | EC50 (Insulin-degrading enzyme [5]) > 54.7 µM | IC50 (HEK293 [6]) > 89.1 µM | EC50 (HEK293 [7]) > 55.9 µM

CC(=N)C1=C(O)C2(C)C(=CC1=O)Oc1c(C(C)=O)c(O)c(C)c(O)c12 (stereo unspecified)
inactive: IC50 (Melanocortin receptor 4) > 64.6 µM | IC50 [8] > 64.6 µM
